# Experiment: adverse events in patients (CTCAE version 3.0)
# Assay type: in vivo, human
# Details: for Any motesanib-related AE, Grade 3 / Any motesanib-related AE, Grade 4 / Any motesanib-related AE, Grade 5 / Motesanib-related AE: Anorexia / Motesanib-related AE: Constipation / Motesanib-related AE: Deep vein thrombosis / Motesanib-related AE: Dehydration / Motesanib-related AE: Dermatitis acneiform / Motesanib-related AE: Diarrhea / Motesanib-related AE: Erythema / Motesanib-related AE: Fatigue / Motesanib-related AE: Hypertension / Motesanib-related AE: Nausea / Motesanib-related AE: Pulmonary embolism / Motesanib-related AE: Rash / Motesanib-related AE: Vomiting / Motesanib-related Arterial thromboembolic events (all grades) / Motesanib-related Arterial thrombosis, Grade 3 / Motesanib-related Arterial thrombosis, Grade 4 / Motesanib-related Cerebrovascular accident, Grade 2 / Motesanib-related Deep vein thrombosis, Grade 2 / Motesanib-related Deep vein thrombosis, Grade 3 / Motesanib-related Gallbladder disorder, Grade 1 / Motesanib-related Hemorrhagic events, Grade 1 / Motesanib-related Jugular vein thrombosis, Grade 2 / Motesanib-related Neutropenia, Grade 3 / Motesanib-related Pulmonary embolism, Grade 4 / Motesanib-related Pulmonary embolism, Grade 5 / Motesanib-related Venous thromboembolic events (all grades) / Patients with any motesanib-related AE: gemcitabine/cisplatin
# Method: Adverse events were recorded throughout the study and graded (including DLTs) according to the Common Terminology Criteria for Adverse Events, version 3.0. Samples for assessment of hematology, blood chemistry, urinalysis, and thyroid function were collected on day 1 of each cycle.
# [1] = 33 patients who received motesanib, all cohorts
# [2] = listed after the 125-mg QD cohort
# [3] = motesanib 50 mg QD (n = 8) + panitumumab
# [4] = motesanib 75 mg BID (n = 2) + panitumumab
# [5] = motesanib 75 mg QD (n = 6) + panitumumab
structure (smiles),measurement,setting,value
CC1(C)CNc2cc(NC(=O)c3cccnc3NCc3ccncc3)ccc21 [motesanib],grade 3 cholelithiasis,100 mg QD cohort,One
same,grade 1 jaundice,125 mg QD cohort,one
same,motesanib-related anorexia,[1],8 patients
same,motesanib-related diarrhea,[1],10 patients
same,motesanib-related fatigue,[1],14 patients
same,motesanib-related hypertension,[1],15 patients
same,motesanib-related nausea,[1],15 patients
same,motesanib-related pulmonary embolism,[1],8 patients
same,motesanib-related vomiting,[1],8 patients
same,patients with serious motesanib-related adverse events,125-mg QD cohort,8 patients
same,hypothyroidism,all cohorts,did not occur
same,patients who discontinued motesanib because of adverse events,all cohorts,13 patients
same,patients with motesanib-related venous thromboembolic events,"all cohorts, 10 patients",24%
same,patients with grade 4 or 5 pulmonary embolism,"all cohorts, eight patients (one grade 5)",20%
same,patients with deep vein thrombosis (grade 2 or 3),"all cohorts, four patients",10%
same,patients with serious adverse events considered related to motesanib,"all cohorts, fourteen patients",34%
same,patients with grade 2 jugular vein thrombosis,"all cohorts, one patient",2%
same,patients with motesanib-related serious adverse event with a worst grade of 4,"all cohorts, six patients",15%
same,patients with motesanib-related arterial thromboembolic events,"all cohorts, three patients",7%
same,cholecystitis,any tested dose level,did not occur
same,serious motesanib-related arterial thrombosis,[2],1 patients
same,serious motesanib-related asthenia,[2],1 patients
same,serious motesanib-related atrial fibrillation,[2],1 patients
same,serious motesanib-related confusional state,[2],1 patients
same,serious motesanib-related deep vein thrombosis,[2],2 patients
same,serious motesanib-related dehydration,[2],2 patients
same,serious motesanib-related diarrhea,[2],2 patients
same,serious motesanib-related headache,[2],1 patients
same,serious motesanib-related hyponatremia,[2],1 patients
same,serious motesanib-related pulmonary embolism,[2],3 patients
same,serious motesanib-related sudden death,[2],1 patients
same,"Any motesanib-related AE, Grade 3",[3],2 (25) n (%)
same,"Any motesanib-related AE, Grade 4",[3],0 (0) n (%)
same,"Any motesanib-related AE, Grade 5",[3],1 (13) n (%)
same,Motesanib-related AE: Anorexia,[3],2 (25) n (%)
same,Motesanib-related AE: Constipation,[3],0 (0) n (%)
same,Motesanib-related AE: Deep vein thrombosis,[3],1 (13) n (%)
same,Motesanib-related AE: Dehydration,[3],0 (0) n (%)
same,Motesanib-related AE: Dermatitis acneiform,[3],1 (13) n (%)
same,Motesanib-related AE: Diarrhea,[3],1 (13) n (%)
same,Motesanib-related AE: Erythema,[3],1 (13) n (%)
same,Motesanib-related AE: Fatigue,[3],4 (50) n (%)
same,Motesanib-related AE: Hypertension,[3],3 (38) n (%)
same,Motesanib-related AE: Nausea,[3],4 (50) n (%)
same,Motesanib-related AE: Pulmonary embolism,[3],1 (13) n (%)
same,Motesanib-related AE: Rash,[3],0 (0) n (%)
same,Motesanib-related AE: Vomiting,[3],2 (25) n (%)
same,Motesanib-related Arterial thromboembolic events (all grades),[3],1 (13) n (%)
same,"Motesanib-related Arterial thrombosis, Grade 3",[3],0 (0) n (%)
same,"Motesanib-related Arterial thrombosis, Grade 4",[3],0 (0) n (%)
same,"Motesanib-related Cerebrovascular accident, Grade 2",[3],1 (13) n (%)
same,"Motesanib-related Deep vein thrombosis, Grade 2",[3],1 (13) n (%)
same,"Motesanib-related Deep vein thrombosis, Grade 3",[3],0 (0) n (%)
same,"Motesanib-related Gallbladder disorder, Grade 1",[3],0 (0) n (%)
same,"Motesanib-related Hemorrhagic events, Grade 1",[3],1 (13) n (%)
same,"Motesanib-related Jugular vein thrombosis, Grade 2",[3],0 (0) n (%)
same,"Motesanib-related Neutropenia, Grade 3",[3],1 (13) n (%)
same,"Motesanib-related Pulmonary embolism, Grade 4",[3],0 (0) n (%)
same,"Motesanib-related Pulmonary embolism, Grade 5",[3],1 (13) n (%)
same,Motesanib-related Venous thromboembolic events (all grades),[3],2 (25) n (%)
same,Patients with any motesanib-related AE,[3],6 (75) n (%)
same,"Any motesanib-related AE, Grade 3",[4],1 (50) n (%)
same,"Any motesanib-related AE, Grade 4",[4],1 (50) n (%)
same,"Any motesanib-related AE, Grade 5",[4],0 (0) n (%)
same,Motesanib-related AE: Anorexia,[4],0 (0) n (%)
same,Motesanib-related AE: Constipation,[4],0 (0) n (%)
same,Motesanib-related AE: Deep vein thrombosis,[4],0 (0) n (%)
same,Motesanib-related AE: Dehydration,[4],0 (0) n (%)
same,Motesanib-related AE: Dermatitis acneiform,[4],0 (0) n (%)
same,Motesanib-related AE: Diarrhea,[4],1 (50) n (%)
same,Motesanib-related AE: Erythema,[4],0 (0) n (%)
same,Motesanib-related AE: Fatigue,[4],0 (0) n (%)
same,Motesanib-related AE: Hypertension,[4],1 (50) n (%)
same,Motesanib-related AE: Nausea,[4],0 (0) n (%)
same,Motesanib-related AE: Pulmonary embolism,[4],0 (0) n (%)
same,Motesanib-related AE: Rash,[4],2 (100) n (%)
same,Motesanib-related AE: Vomiting,[4],0 (0) n (%)
same,Motesanib-related Arterial thromboembolic events (all grades),[4],1 (50) n (%)
same,"Motesanib-related Arterial thrombosis, Grade 3",[4],0 (0) n (%)
same,"Motesanib-related Arterial thrombosis, Grade 4",[4],1 (50) n (%)
same,"Motesanib-related Cerebrovascular accident, Grade 2",[4],0 (0) n (%)
same,"Motesanib-related Deep vein thrombosis, Grade 2",[4],0 (0) n (%)
same,"Motesanib-related Deep vein thrombosis, Grade 3",[4],0 (0) n (%)
same,"Motesanib-related Gallbladder disorder, Grade 1",[4],0 (0) n (%)
same,"Motesanib-related Hemorrhagic events, Grade 1",[4],0 (0) n (%)
same,"Motesanib-related Jugular vein thrombosis, Grade 2",[4],0 (0) n (%)
same,"Motesanib-related Neutropenia, Grade 3",[4],0 (0) n (%)
same,"Motesanib-related Pulmonary embolism, Grade 4",[4],0 (0) n (%)
same,"Motesanib-related Pulmonary embolism, Grade 5",[4],0 (0) n (%)
same,Motesanib-related Venous thromboembolic events (all grades),[4],0 (0) n (%)
same,Patients with any motesanib-related AE,[4],2 (100) n (%)
same,"Any motesanib-related AE, Grade 3",[5],2 (33) n (%)
same,"Any motesanib-related AE, Grade 4",[5],2 (33) n (%)
